In patent publication US9453198B2, “Method of nociceptor differentiation of human embryonic stem cells and uses thereof” (MEMORIAL SLOAN KETTERING CANCER CENTER, priority 2010, dated 2016):

Tests used:
[1] = tested on: human ES cells; assay: Combinatorial small molecule screen, TUJ1/PAX6 immunofluorescence on day 10; assay type: cell-based; conditions: no matter when added during LSB treatment
Excerpt: Specifically, in the context of dual SMAD inhibition (LSB), i.e. human ES cells were first treated with LSB (LDN-193189 and SB431542) for screening candidate compounds (i.e. small molecules) under approximately 400 conditions in order to find combinations of small molecules that might accelerate the acquisition of postmitotic neuron markers starting from human ES cells. Candidate compounds were chosen from molecules that targeted (altered) cell signaling pathways known to be important and frequently used in developmental studies in order to determine cell fates (for example, signaling pathways such as FGF, Notch, WNT, SHH (Sonic Hedgehog), etc.) for determining cells capable of CNS development. […]
On day 10 after addition of LSB, cells that survived during the screen were monitored for the loss of the human neuroectoderm marker PAX6 (Zhang, et al., Cell Stem Cell 7, 90-100, (2010), herein incorporated by reference) and initiation of neuronal differentiation by TUJ1 expression (Lee, et al., Cell Motil Cytoskeleton 17, 118-132, (1990), herein incorporated by reference). […] In general, results were determined by observing comparative amounts of TUJ1+/PAX6− staining of cells generated by each treatment such that the conditions and compounds showing the highest amounts of TUJ1+/PAX6− staining were chosen as successful for providing cells for further analysis. […]

[2] = tested on: hPSCs; assay: Intracellular FACS for Nestin and TUJ1 (efficiency of neuronal differentiation); assay type: cell-based, human; conditions: day 10, further inhibitors added day 2 of LSB treatment
Procedure: In the presence of LSB, SU/DAPT, DAPT, SU and CHIR, the majority of cells expressed Nestin. In particular, >95% of the LSB cell population were Nestin+.
Neural induction was performed as previously reported (Chambers, et al., Nat Biotechnol 27, (2009), herein incorporated by reference). Briefly, cells were collected then rendered to a single cell suspension using ACCUTASE (Sigma-Aldrich Corp. St. Louis, Mo., USA) and plated on gelatin for 30 minutes to remove Mouse Embryonic Fibroblast (MEF) Feeder Cells (MEFs) (MEFs adhere to gelatin coated plate). Non-adherent cells were collected and plated on matrigel treated dishes at a density of 20-40,000 cells/cm^2 in the presence of MEF-conditioned hESC media containing 10 ng/ml FGF-2 and 10 μM Y-27632 (rho-kinase inhibitor—Tocris Bioscience). Neural differentiation was initiated when the cells were confluent using Knockout Serum Replacement (KSR) media containing 820 ml of Knockout DMEM, 150 ml Knockout Serum Replacement, 1 mM L-glutamine, 100 μM MEM non-essential amino acids, and 0.1 mM β-mercaptoethanol. To inhibit SMAD signaling, 100 nM LDN-193189 and 10 μM SB431542 were added daily from day 0 (when SMAD signaling inhibitors LSB were added) through day 5. Cells were fed daily (i.e. 6 feedings with inhibitors, D0, D1, D2, D3, D4 and D5), and N2 media was added to the initial medium in increasing 25% increments every other day starting on day 4 (up to 100% N2 on day 10). […] After day 10, long-term culture media consisted of N2 media containing 10-100 ng/ml human-β-nerve growth factor (NGF), 10-100 ng/ml brain-derived neurotrophic factor (BDNF), and 10-100 ng/ml glial cell-derived neurotrophic factor (GDNF).
Cells were fixed with 4% paraformaldehyde for 20 minutes, washed with phosphate buffered saline (PBS), permeablized using 0.5% Triton X in PBS, and blocked using 1% BSA (bovine serum albumin) in phosphate buffered saline (PBS). For glutamate staining, 0.05% gluteraldehyde was added to the fixative. […]

[3] = tested on: melanocyte precursors from hESC; assay: Expansion and maturation of melanocytes; assay type: cell-based, human; conditions: component left out of formulation
Excerpt: Melanocyte characteristics evaluated included induction of spindle morphology, pigmentation, and melanosome formation.
Specifically, the following time line of culturing conditions was developed that produced melanocytes of the present inventions: Feed on Day 0 and 1 with LDN and SB (using the same concentration ranges as LDN and SB in methods comprising 3i); Feed on Day 2 with LDN, SB, CHIR (using the same concentration ranges as LDN, SB, and CHIR in methods comprising 3i as described herein); In one embodiment, Feed on Day 3 with SB, CHIR (using the same concentration ranges as SB and CHIR in methods comprising 3i as described herein), in another embodiment Feed on Day 3 with LDN, SB, CHIR (using the same concentration ranges as LDN, SB, and CHIR in methods comprising 3i as described herein); Feed on Day 4 and 5 CHIR (using the same concentration ranges as CHIR in methods comprising 3i as described herein); Feed on Day 6 to 11 CHIR, BMP4, and EDN3 (using the same concentration ranges as CHIR in methods comprising 3i as described herein, see concentration ranges below for BMP4 and EDN3). On day 11 cells were passaged and fed with MEL media (including CHIR) up to 8 weeks. […]

[4] = tested on: hESC; assay: Timing of 3i addition after LSB induction (survival, TUJ1); assay type: cell-based
Excerpt: Cells were stained for identifying antibodies that bound to OCT4 (dark) and PAX6 (light) in addition to a nuclear 4′-6 Diamidino-2-phenylindole (DAPI) stain.
The stem cells treated with the combination of LSB and 3i were fixed on day 11 and examined for survival and expression of the neuronal marker TUJ1.

[5] = tested on: transgenic SOX10::GFP BAC hESC line; assay: SOX10::GFP reporter FACS (neural crest induction); assay type: cell-based, human; conditions: by day 12 of differentiation
Excerpt: Thus, in order to determine if a neural crest intermediate cell fate marked by SOX10 (Aoki, et al., Dev Biol 259, 19-33, (2003); Lee, et al., Nat Biotechnol 25, 1468-1475, (2007), herein incorporated by reference) in human cells would be observed during differentiation using a transgenic SOX10::GFP bacterial artificial chromosome (BAC) hPSC line. This SOX10:: GFP (BAC) cell line was generated with enriched neural crest gene markers that co-expressed with a GFP gene using methods previously reported (Placantonakis, et al., Stem Cells 27:521-532, (2009), herein incorporated by reference). The SOX10:GFP cell line was a sub-clone of the H9 hESC line. Cells were dissociated and gene delivery was performed using reagents (solution V), protocol (B-16), and equipment from Amaxa. The DNA nucleofected (transfected into the nucleus) was a bacterial artificial chromosome (BAC) containing the SOX10 gene with an inserted GFP, obtained from Gene Expression Nervous System Atlas [GENSAT] (accession number: GENSAT1-BX1086). […]

[6] = tested on: rodent GSK3β homologs; conditions: cited from earlier work

CC1=C2C[C@H]3[C@@H](CC=C4C[C@@H](O)CC[C@@]43C)[C@@H]2CC[C@]12O[C@@H]1C[C@H](C)CN[C@H]1[C@H]2C [Cyclopamine]
effect on TUJ1/PAX6 staining [1]: no effect

Cc1c[nH]c(/C=C2\C(=O)Nc3ccccc32)c1CCC(=O)O [SU5402, 2-[(1,2-Dihydro-2-oxo-3H-indol-3-ylidene)methyl]-4-methyl-1H-pyrrole-3-propanoic acid]
Nestin positive cells (progenitors) [2]: majority

C[C@H](NC(=O)Cc1cc(F)cc(F)c1)C(=O)N[C@H](C(=O)OC(C)(C)C)c1ccccc1 [DAPT, N—[N-(3,5-Difluorophenacetyl)-L-alanyl]-S-phenylglycine t-butyl ester]
Nestin positive cells (progenitors) [2]: majority

CCCCC/C=C\C/C=C\CCCCCCCC(=O)O [Linoleic Acid]
requirement in medium for growth of melanocytes [3]: required

c1ccc2c(-c3cnn4cc(-c5ccc(N6CCNCC6)cc5)cnc34)ccnc2c1 [LDN193189, 4-(6-(4-(piperazin-1-yl)phenyl)pyrazolo[1,5-a]pyrimidin-3-yl)quinoline]
effect of inclusion or exclusion from days 5 to 10 on the differentiation [4]: does not make a difference

Cc1c[nH]c(-c2cnc(NCCNc3ccc(C#N)cn3)nc2-c2ccc(Cl)cc2Cl)n1 [CHIR99021, 6-(2-(4-(2,4-dichlorophenyl)-5-(4-methyl-1H-imidazol-2-yl)pyrimidin-2-ylamino)ethylamino)nicotinonitrile]
SOX10::GFP+ cells [5]: greater than 70%
Nestin positive cells (progenitors) [2]: majority
IC50 values [6]: nanomolar
